Laboratory results published in patent publication US7132252B2, “Methods for detecting the interaction of compounds with cytochrome P450 using optical molecular sensors” (Invitrogen Corporation, priority 1998, dated 2006).
Where “and” joins values, the source holds several entries; their conditions need not be identical. Identical values can stand only once.

What was measured:
[1] = molecular target: T1, CYP2C9 (Homo sapiens, UniProt P11712); experiment: Fluorescence signal from enzymatic metabolism over reagent addition background, CYP2C9; type: biochemical; conditions: OOMR and BOMCC vs MFC (FIG. 11)
T1 sequence (P11712 whole entry): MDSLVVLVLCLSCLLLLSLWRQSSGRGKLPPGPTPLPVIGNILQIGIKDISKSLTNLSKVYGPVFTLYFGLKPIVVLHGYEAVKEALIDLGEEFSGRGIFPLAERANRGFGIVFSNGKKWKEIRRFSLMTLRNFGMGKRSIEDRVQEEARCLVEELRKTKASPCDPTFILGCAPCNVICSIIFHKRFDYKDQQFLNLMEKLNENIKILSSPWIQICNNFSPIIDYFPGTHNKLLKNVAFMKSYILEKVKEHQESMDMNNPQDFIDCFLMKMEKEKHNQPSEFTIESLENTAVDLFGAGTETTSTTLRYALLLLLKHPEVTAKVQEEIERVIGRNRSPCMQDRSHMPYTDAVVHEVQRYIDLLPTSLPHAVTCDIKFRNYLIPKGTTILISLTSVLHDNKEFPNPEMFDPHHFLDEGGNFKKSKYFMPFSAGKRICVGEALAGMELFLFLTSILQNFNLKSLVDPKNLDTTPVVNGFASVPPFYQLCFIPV
Method: (§1) The assays were performed in a 96-well plate at room temperature and at a volume of 100 μl/well. […] (See Table 11.) The enzyme was made up in the appropriate K+ phosphate buffer at 10× and 10 μl/well was-added to the appropriate wells. (See Table 11.) The plate was read at 3 minute intervals for 12 minutes to obtain a background fluorescence levels. Readings were briefly interrupted to allow for the addition of 10 μl of 10×NADP+ in K+ phosphate buffer to each well. (See Table 11.) The readings were resumed at 3 minute intervals for another 12 minutes. […] To permit quantitative comparison between sensors that were or would be metabolized to yield fluorescent products of differing optical properties, the signal intensity corresponding to each well was normalized by division with the initial signal intensity (wells containing enzyme and buffer). […] The later increase in signal, approximately four minutes after the second addition and at later time points, is believed to be due to the enzymatic conversion of the substrate to the product. […] [table]

[2] = molecular target: T1, CYP2C9; experiment: Kinetic properties of fluorogenic substrates with CYP 2C9; type: biochemical; conditions: for v (1.25 uM): turnover rate at 1.25 uM substrate; for v (10 uM): turnover rate at 10 uM substrate
[3] = molecular target: T2, CYP 2B6 (Homo sapiens, UniProt P20813); experiment: Kinetic properties of fluorogenic substrates with CYP 2B6; type: biochemical
T2 sequence (P20813 1-491): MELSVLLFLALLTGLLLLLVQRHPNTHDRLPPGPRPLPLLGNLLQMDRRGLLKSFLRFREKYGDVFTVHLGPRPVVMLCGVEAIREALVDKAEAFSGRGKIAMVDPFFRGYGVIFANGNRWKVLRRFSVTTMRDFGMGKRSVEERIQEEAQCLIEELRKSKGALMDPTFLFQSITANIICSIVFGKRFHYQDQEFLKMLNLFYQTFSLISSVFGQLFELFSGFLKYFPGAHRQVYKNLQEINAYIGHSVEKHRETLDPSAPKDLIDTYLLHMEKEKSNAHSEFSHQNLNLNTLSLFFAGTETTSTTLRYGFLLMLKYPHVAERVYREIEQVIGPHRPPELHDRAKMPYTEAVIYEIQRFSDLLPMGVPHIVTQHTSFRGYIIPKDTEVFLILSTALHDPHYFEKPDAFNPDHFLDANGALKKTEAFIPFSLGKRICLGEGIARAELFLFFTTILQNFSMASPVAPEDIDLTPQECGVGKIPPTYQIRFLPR

[4] = molecular target: T3, CYP2C19 (Homo sapiens, UniProt P33261); experiment: Kinetic properties of fluorogenic substrates with CYP 2C19; type: biochemical; conditions: for v (1.25 uM): turnover rate at 1.25 uM substrate; for v (1.25 uM) / v (10 uM): — = too low to quantify; for v (10 uM): turnover rate at 10 uM substrate
T3 sequence (P33261 whole entry): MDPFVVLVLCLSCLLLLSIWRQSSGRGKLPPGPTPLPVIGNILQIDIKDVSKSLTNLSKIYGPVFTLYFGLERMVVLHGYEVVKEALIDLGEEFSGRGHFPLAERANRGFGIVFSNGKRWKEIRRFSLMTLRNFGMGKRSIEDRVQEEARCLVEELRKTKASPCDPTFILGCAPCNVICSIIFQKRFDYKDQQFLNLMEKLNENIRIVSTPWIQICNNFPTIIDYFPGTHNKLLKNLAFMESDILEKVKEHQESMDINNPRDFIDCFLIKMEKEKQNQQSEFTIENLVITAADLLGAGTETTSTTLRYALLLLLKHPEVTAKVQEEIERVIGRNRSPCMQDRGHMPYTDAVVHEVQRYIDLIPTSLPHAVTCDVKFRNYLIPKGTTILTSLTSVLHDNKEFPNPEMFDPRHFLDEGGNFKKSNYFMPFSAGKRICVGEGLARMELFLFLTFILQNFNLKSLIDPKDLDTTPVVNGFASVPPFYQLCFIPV

[5] = molecular target: T4, CYP3A4 (Homo sapiens, UniProt P08684); experiment: Kinetic properties of fluorogenic substrates with CYP 3A4; type: biochemical; conditions: for v (1.25 uM): turnover rate at 1.25 uM substrate; for v (10 uM): turnover rate at 10 uM substrate
T4 sequence (P08684 whole entry): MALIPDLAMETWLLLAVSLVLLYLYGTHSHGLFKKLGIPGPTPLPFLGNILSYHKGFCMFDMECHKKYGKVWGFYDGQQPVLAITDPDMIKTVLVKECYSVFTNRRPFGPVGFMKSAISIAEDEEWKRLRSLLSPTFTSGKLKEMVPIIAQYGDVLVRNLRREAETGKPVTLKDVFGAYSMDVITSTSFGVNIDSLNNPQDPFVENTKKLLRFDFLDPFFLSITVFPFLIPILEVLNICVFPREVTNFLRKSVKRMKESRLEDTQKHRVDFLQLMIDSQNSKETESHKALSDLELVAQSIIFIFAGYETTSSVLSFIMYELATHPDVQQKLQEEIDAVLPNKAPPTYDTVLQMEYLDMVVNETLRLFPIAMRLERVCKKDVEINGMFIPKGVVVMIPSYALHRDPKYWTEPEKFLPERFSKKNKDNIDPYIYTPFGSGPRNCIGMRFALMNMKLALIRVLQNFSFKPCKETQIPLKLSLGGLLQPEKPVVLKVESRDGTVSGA
Description: For further understanding these terms in the context of this invention, attention is directed to FIG. 4 and the analysis of FIG. 4.
(§2) (respectively, MFC and MR).

[6] = molecular target: T4, CYP3A4; experiment: Fluorescence signal from enzymatic metabolism over reagent addition background, CYP3A4; type: biochemical; conditions: BOMR vs benzylresorufin (FIG. 8); BOMCC vs BFC (FIG. 9)
Method: as §1

[7] = molecular target: T3, CYP2C19; experiment: Fluorescence signal from enzymatic metabolism over reagent addition background, CYP2C19; type: biochemical; conditions: EOMCC vs CEC (FIG. 12)
Method: as §1

[8] = molecular target: T5, CYP 1A2 (Homo sapiens, UniProt P05177); experiment: Kinetic properties of fluorogenic substrates with CYP 1A2; type: biochemical
T5 sequence (P05177 1-516): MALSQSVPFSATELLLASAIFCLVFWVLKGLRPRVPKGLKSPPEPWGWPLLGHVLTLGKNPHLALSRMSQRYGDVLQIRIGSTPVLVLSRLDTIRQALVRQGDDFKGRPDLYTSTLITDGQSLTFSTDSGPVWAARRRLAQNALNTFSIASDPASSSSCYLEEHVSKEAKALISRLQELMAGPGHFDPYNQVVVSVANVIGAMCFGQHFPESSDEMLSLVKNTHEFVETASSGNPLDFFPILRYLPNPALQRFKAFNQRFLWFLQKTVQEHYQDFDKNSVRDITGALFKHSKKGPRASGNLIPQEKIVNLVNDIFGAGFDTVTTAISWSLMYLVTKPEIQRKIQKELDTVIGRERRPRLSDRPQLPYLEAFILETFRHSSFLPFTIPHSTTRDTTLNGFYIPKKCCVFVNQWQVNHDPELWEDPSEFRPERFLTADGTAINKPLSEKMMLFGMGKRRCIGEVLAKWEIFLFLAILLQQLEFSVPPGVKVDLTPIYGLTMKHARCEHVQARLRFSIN

[9] = molecular target: T6, CYP2D6 (Homo sapiens, UniProt P10635); experiment: Fluorescence signal from enzymatic metabolism over reagent addition background, CYP2D6; type: biochemical; conditions: MOBFC vs AMMC (Gentest) (FIG. 10)
T6 sequence (P10635 whole entry): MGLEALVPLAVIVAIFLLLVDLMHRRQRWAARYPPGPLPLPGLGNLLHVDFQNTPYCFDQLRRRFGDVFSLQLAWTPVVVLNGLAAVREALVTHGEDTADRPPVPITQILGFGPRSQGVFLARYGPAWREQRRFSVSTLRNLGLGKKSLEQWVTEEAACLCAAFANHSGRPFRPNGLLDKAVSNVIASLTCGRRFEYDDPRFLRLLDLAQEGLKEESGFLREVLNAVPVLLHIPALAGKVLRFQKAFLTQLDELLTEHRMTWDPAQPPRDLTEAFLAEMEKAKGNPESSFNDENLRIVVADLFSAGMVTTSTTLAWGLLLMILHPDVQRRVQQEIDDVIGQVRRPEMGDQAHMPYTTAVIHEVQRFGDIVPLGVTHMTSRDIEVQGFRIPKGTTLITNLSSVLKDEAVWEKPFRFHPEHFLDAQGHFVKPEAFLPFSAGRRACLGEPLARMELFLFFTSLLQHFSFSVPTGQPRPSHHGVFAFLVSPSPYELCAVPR
Method: as §1

[10] = molecular target: T6, CYP2D6; experiment: Kinetic properties of fluorogenic substrates with CYP 2D6; type: biochemical
Description: as §2

[11] = Stability of substrate stock solution; type: physicochemical; conditions: 10 mM in acetonitrile, stored at 4° C. in the dark
Method: Substrate stock solutions were stable when stored at 4° C. in the dark. 7-Hydroxy-4trifluoromethylcoumarin dye standard was prepared at 1 mM in DMSO. […] Control wells receive the appropriate inhibition controls for each isozyme. Also, inhibitors are added to wells that contain the dye standards to permit addition of substrate and enzyme to all wells of the plate. • 2. […] 30 μl/well Enzyme/Recycling System buffer was added.

[12] = molecular target: T4, CYP3A4; experiment: in vitro; conditions: pH 8
Description: Data for a product fluorescence standard calibration curve was generated in the following manner.

[13] = turnover rate at 1.25 uM substrate, — = too low to quantify
[14] = turnover rate at 10 uM substrate, — = too low to quantify

| SMILES | signal to background versus prior commercially available substrate [1] | type of kinetics [2] | v (1.25 uM) ([2]; — = too low to quantify) | v (10 uM) ([2]; — = too low to quantify) | type of kinetics [4] | v (1.25 uM) [4] | v (10 uM) [4] | type of kinetics [5] | v (1.25 uM) ([5]; — = too low to quantify) | v (10 uM) ([5]; — = too low to quantify) | further results |
| --- | --- | --- | --- | --- | --- | --- | --- | --- | --- | --- | --- |
| N#Cc1cc2ccc(OCOCc3ccccc3)cc2oc1=O [BOMCC, 7-Benzyloxymethyloxy-3-cyanocoumarin] | superior signal to background | Michaelis-Menten | 0.04 min⁻¹ | 0.42 min⁻¹ | Michaelis-Menten | 0.16 min⁻¹ | 0.68 min⁻¹ | sigmoidal | 0.12 min⁻¹ | 0.98 min⁻¹ | type of kinetics [3]: Michaelis-Menten; Km ([3]; human, CYP 2B6 isozyme, — = too low to quantify): 52 µM; v (1.25 uM) [3, 13]: 0.38 min⁻¹; v (10 uM) [3, 14]: 3.05 min⁻¹; kcat ([3]; — = too low to quantify): 1.1 s⁻¹; kcat ([5]; ( ) = from Michaelis-Menten fit, — = too low to quantify): (10.0) min-1; signal to background versus prior commercially available substrate [6]: superior signal to background |
| CCOCOc1ccc2cc(C#N)c(=O)oc2c1 [EOMCC] |  |  |  |  | Michaelis-Menten | 0.34 min⁻¹ | 2.22 min⁻¹ |  |  |  | signal to background versus prior commercially available substrate [7]: superior signal to background; type of kinetics [8]: Michaelis-Menten; v (1.25 uM) ([8]; turnover rate at 1.25 uM substrate): 1.77 min⁻¹; v (10 uM) ([8]; turnover rate at 10 uM substrate): 9.95 min⁻¹ |
| COc1ccc(COc2ccc3c(C(F)(F)F)cc(=O)oc3c2)cc1 [MOBFC] |  | Michaelis-Menten | 0.02 min⁻¹ | 0.188 min⁻¹ and 0.19 min⁻¹ |  |  |  | Michaelis-Menten | 0.0214 min⁻¹ and 0.02 min⁻¹ | 0.3453 min⁻¹ and 0.35 min⁻¹ | kcat ([2]; — = too low to quantify): 0.005 s⁻¹; signal to background versus prior commercially available substrate [9]: superior signal to background; type of kinetics [10]: Michaelis-Menten; v (1.25 uM) [10, 13]: 0.09 min⁻¹; v (10 uM) [10, 14]: 0.49 min⁻¹; stability of substrate stock solutions [11]: stable |
| CCCCCCCCOCOc1ccc2nc3ccc(=O)cc-3oc2c1 [OOMR, Octyloxymethylresorufin] | superior signal to background |  | 0.137 min⁻¹ | 0.31 min⁻¹ |  | 0.1 min⁻¹ | 0.13 min⁻¹ |  | 0.323 min⁻¹ | 0.601 min⁻¹ |  |
| Clc1ccc(COC(Cn2ccnc2)c2ccc(Cl)cc2Cl)c(Cl)c1 (centres unmarked) [miconazole] |  |  |  |  |  |  |  |  |  |  | inhibition at 1 h, 10 µM [12]: ~100% |
